Results as given in US20130090381A1, “PYRETHRINOID-TYPE ESTERS AS PESTICIDES” (SUMITOMO CHEMICAL COMPANY, LIMITED, priority 2010, published 2013).

Tested on: German cockroaches
Assay: Knockdown test on German cockroaches by spraying an oil solution
Assay type: in vivo, German cockroach (Blattella germanica)
Settings: 0.1% (w/v) oil solution, 1.5 ml sprayed; after 15 minutes; ten German cockroaches (5 of each male and female)
Procedure: The present invention compound (1) (0.1 parts) produced in the aforementioned Production Example was dissolved in 10 parts of isopropyl alcohol and the resulting solution was mixed with 89.9 parts of deodorized kerosine to prepare a 0.1% (w/v) oil solution.
Ten German cockroaches (5 of each male and female) were released in a test container (measuring 8.75 cm in diameter and 7.5 cm in height, bottom area covered with a 16 mesh wire netting) coated with butter at an inner wall, and the container was disposed on the bottom of a test chamber (bottom surface measuring 46 cm and 46 cm, 70 cm in height).
From 60 cm in height above the container, 1.5 ml of the oil solution of the present invention compound (1) was sprayed using a spray gun (spray pressure: 0.4 kg/cm^2). Thirty seconds after spraying, the container was removed from the test chamber. After a given time, the number of knockdowned cockroaches was counted and a knockdown rate was determined (repeated once). The knockdown rate was calculated by the following equation.
Knockdown rate (%)=(number of knockdowned cockroaches/number of test cockroaches)×100

C#CCC1=C(C)[C@@H](OC(=O)[C@@H]2[C@@H](/C=C(C#N)/C=C/C)C2(C)C)CC1=O [present invention compound (1), (S)-2-methyl-3-propynylcyclopent-2-en-4-on-1-yl=(1R)-trans-3-[(1Z,3E)-2-cyano-1,3-pentadienyl]-2,2-dimethylcyclopropane carboxylate]
knockdown rate: 100%
